Assay results: US8475862B2, “Isothiocyanate preservatives and methods of their use” (The Procter & Gamble Company, priority 2003, dated 2013)

How the values were obtained:
[1] = Moisture sensitivity test: isothiocyanate suspended in aqueous phosphate buffer, level measured by supercritical fluid chromatography; type: physicochemical; conditions: white mustard essential oil suspended in aqueous phosphate buffer, pH about 3.6, about 20-23° C.
Description: As used herein, the term “moisture-sensitive” means that the isothiocyanate compound degrades in the presence of water. This degradation proceeds via a hydrolysis reaction, thereby leading to a reduction in level of the active isothiocyanate antimicrobial agent with time of storage in the presence of water. The method for determining moisture sensitivity is set forth in the Test Method section below. […]
These solutions are analyzed by supercritical fluid chromatography using the method described by Buskov, S. et al., “Supercritical fluid chromatography as a method of analysis for the determination of 4-hydroxybenzylglucosinolate degradation products,” Journal of Biochemical and Biophysical Methods, Vol. 43, pp 157-174 (2000) with the following modifications. […] The eluate is detected at 226 and 252 nm. […]
Moisture-sensitive isothiocyanate compounds are identified by suspending the isothiocyanate containing material in an aqueous phosphate buffer (pH of about 3.6) at room temperature. […] The extraction procedure is repeated after 24 hours and the level of residual isothiocyanate compound is measured by supercritical fluid chromatography. […]

[2] = system: four lactic acid spoilage bacteria (Lactobacillus fructivorans, L. fermentum, L. plantar and L. hilgardii); assay: Ketchup spoilage challenge, plate counts of inoculated lactic acid bacteria; type: cell-based; conditions: 250 CFU/gm inoculum, stored at 22° C.
Description: (§1) Ketchup is an acid food with a pH of 3.5-3.8 that can be cold filled at 100±20° F. in PET bottles. The product is vulnerable during filling operation at the filler, susceptible for recontamination by adventitious spoilage microorganisms such as lactic acid bacteria (LAB) and acid and preservative tolerant yeasts (APRY).
(§2) All natural tomato ketchup products were made, a first sample with sodium (ANK) and a second sample with reduced sodium (ANK-RS). Each sample was split, and to each about 150 ppm and 300 ppm 4-hydroxybenzyl isothiocyanate was added. The samples were further split (for a total of eight samples) and inoculated as follows. Microorganisms were inoculated into four samples with a cocktail consisting of four separate lactic acid spoilage bacteria (250 CFU/gm) such as Lactobacillus fructivorans, L. fermentum, L. plantar and L. hilgardii. The four remaining samples were inoculated with Zygosaccharomyces bailii—(150-200 CFU/gm) previously isolated from a ketchup spoilage incident.
(§3) A summary of the samples is as follows: • 1: ANK—150 ppm 4HBITC—inoculated with four lactic acid bacteria • 2: ANK—150 ppm 4HBITC—inoculated with Z. bailii • 3: ANK—300 ppm 4HBITC—inoculated with four lactic acid bacteria • 4: ANK—300 ppm 4HBITC—inoculated with Z. bailii • 5: ANK-RS—150 ppm 4HBITC—inoculated with four lactic acid bacteria • 6: ANK-RS—150 ppm 4HBITC—inoculated with Z. bailii • 7: ANK-RS—300 ppm 4HBITC—inoculated with four lactic acid bacteria • 8: ANK-RS—300 ppm 4HBITC—inoculated with Z. bailii
(§4) The inoculated ketchup samples were stored at 22° C. […] The lactic acid bacteria and yeasts counts were performed as described in FDA BAM manual. The plate counts were then used to identify the degree of microbial kill or stasis in the inoculated product. […] At 150 ppm, the declining trend was gradual taking 336 hours to non-detectable level for both ANK and ANK-RS. Un-inoculated controls grew to level of 1000-1500 CFU/gm. In the Z. bailii inoculated samples, counts were reduced to non-detectable level at 96 hours, both with and without 4-hydroxybenzyl isothiocyanate. However, there was no regrowth in the samples with 4-hydroxybenzyl isothiocyanate up to 336 hours (150 and 300 ppm). Regrowth was noticed around 96-108 hours ending at 1×10^6 CFU/gm in control samples without 4-hydroxybenzyl isothiocyanate.

Zygosaccharomyces bailii = assay: Ketchup spoilage challenge, plate counts of inoculated yeast; type: cell-based; conditions: 22° C.; for regrowth of Z. bailii up to 336 hours: controls regrew around 96-108 hours
Description: as §1, §2, §3
as §4, with “However, there was no regrowth in the samples with 4-hydroxybenzyl isothiocyanate up to 336 hours (150 and 300 ppm). Regrowth was noticed around 96-108 hours ending at 1×10^6 CFU/gm in control samples without 4-hydroxybenzyl isothiocyanate.” left out

Oc1ccc(CN=C=S)cc1 [4-hydroxybenzyl isothiocyanate]
percent reduction in level of 4-hydroxybenzyl isothiocyanate after 24 hours [1]: about 72%
time until lactic acid bacteria counts reduced to non-detectable level ([2]; ANK ketchup, 150 ppm): 336 h
time until lactic acid bacteria counts reduced to non-detectable level ([2]; ANK ketchup, 300 ppm): ≤ 96 h
time until lactic acid bacteria counts reduced to non-detectable level ([2]; ANK-RS (reduced sodium) ketchup, 150 ppm): 336 h
time until lactic acid bacteria counts reduced to non-detectable level ([2]; ANK-RS (reduced sodium) ketchup, 300 ppm): ≤ 168 h
time at which Z. bailii counts reduced to non-detectable level (Zygosaccharomyces bailii; 150-200 CFU/gm inoculum, same result with and without 4-hydroxybenzyl isothiocyanate): 96 h
regrowth of Z. bailii up to 336 hours (Zygosaccharomyces bailii; 150 ppm): no regrowth
regrowth of Z. bailii up to 336 hours (Zygosaccharomyces bailii; 300 ppm): no regrowth
